Assays:
Assay type in all cases: in vivo
[1] = Body weight change in ob/ob mice, micronized particles of 15,16-dihydrotanshinone (Example 12); conditions: ob/ob male mice; 400 mg/kg plus sodium lauryl sulfate in admixture with the feed for 20 days
Experimental: In order to confirm therapeutic efficacy of micronized particles of 15,16-dihydrotanshinone, an animal experiment was carried out as follows.
(§1) For this purpose, 10-week-old ob/ob male mice (Jackson Lab) as an obese mouse model of type 2 diabetes were purchased from Orient Co., Ltd., Korea and were allowed to acclimate to a new environment of the breeding room for 10 days prior to experiments. Animals were fed a solid feed (P5053, Labdiet) as a laboratory animal chow. The ob/ob male mice were housed and allowed to acclimate to a new environment for 10 days, in a breeding room maintained at a temperature of 22±2° C., humidity of 55±5%, and a 12-h light/dark (L/D) cycle (light from 8:00 am. to 8:00 p.m.). According to a randomized blocks design, the thus-acclimated animals were randomly divided into four groups, each consisting of 7 animals: a control group with no administration of any drug sample, a group with administration of a vehicle (sodium lauryl sulfate) only, a group with administration of 15,16-dihydrotanshinone (before microparticulation, 400 mg/kg) plus sodium lauryl sulfate, and a group with administration of micronized particles of 15,16-dihydrotanshinone (400 mg/kg) plus sodium lauryl sulfate. Each group of animals was given drug samples in admixture with the feed for 20 days. […]

[2] = Body weight change in DIO C57BL/6 mice, effect of phosphatidylcholine on micronized cryptotanshinone (Example 8); conditions: DIO C57BL/6 male mice; cryptotanshinone 150 mg/kg PO for 40 days
Experimental: In order to ascertain whether phosphatidylcholine (PC) which is a phospholipid maintains a particle size of micronized particles of cryptotanshinone, prevents the particle agglomeration or aggregation, and enhances therapeutic efficacy of cryptotanshinone, an animal experiment was carried out as follows.
For this purpose, 5-week-old C57BL/6 male mice were purchased from Orient Co., Ltd., Korea and were allowed to acclimate to a new environment of the breeding room for 10 days prior to experiments. A DIO (diet-induced obesity) mouse model was established by supplying to animals high-fat diet for 8 weeks. 13-week-old male mice weighing 40 g were used in experiments. Animals were fed a high-fat feed (45 kcal % fat) (D12451, Research Diets Inc., New Brunswick, N.J.) as a laboratory animal chow. The DIO mice were housed and allowed to acclimate to a new environment for 10 days, in a breeding room maintained at a temperature of 22±2° C., humidity of 55±5%, and a 12-h light/dark (L/D) cycle (light from 8:00 a.m. to 8:00 p.m.). […]

[3] = Body weight change in ob/ob mice, effect of calcium silicate on micronized cryptotanshinone (Example 9); conditions: ob/ob male mice; cryptotanshinone 400 mg/kg in admixture with the feed for 20 days
Experimental: In order to ascertain whether calcium silicate maintains a particle size of micronized particles of cryptotanshinone, prevents the particle agglomeration or aggregation, and enhances therapeutic efficacy of cryptotanshinone, an animal experiment was carried out as follows.
as §1, with “10-week-old” for “For this purpose, 10-week-old”, “(calcium silicate)” for “(sodium lauryl sulfate)”, “cryptotanshinone (400 mg/kg),” for “15,16-dihydrotanshinone (before microparticulation, 400 mg/kg) plus sodium lauryl sulfate,”, “cryptotanshinone” for “micronized particles of 15,16-dihydrotanshinone”, “calcium silicate.” for “sodium lauryl sulfate.”

[4] = Body weight change in ob/ob mice, effect of chitosan on micronized cryptotanshinone (Example 10); conditions: ob/ob male mice; cryptotanshinone 400 mg/kg in admixture with the feed for 20 days
Experimental: In order to ascertain whether chitosan maintains a particle size of micronized particles of cryptotanshinone, prevents the particle agglomeration or aggregation, and enhances therapeutic efficacy of cryptotanshinone, an animal experiment was carried out as follows.
(§2) 10-week-old ob/ob male mice (Jackson Lab) as an obese mouse model of type 2 diabetes were purchased from Orient Co., Ltd., Korea and were allowed to acclimate to a new environment of the breeding room for 10 days prior to experiments. Animals were fed a solid feed (P5053, Labdiet) as a laboratory animal chow. The ob/ob male mice were housed and allowed to acclimate to a new environment for 10 days, in a breeding mom maintained at a temperature of 22±2° C., humidity of 55±5%, and a 12-h light/dark (L/D) cycle (light from 8:00 am. to 8:00 p.m.). According to a randomized blocks design, the thus-acclimated animals were randomly divided into four groups, each consisting of 7 animals: a control group with no administration of any drug sample, a group with administration of a vehicle (chitosan) only, a group with administration of cryptotanshinone (400 mg/kg), and a group with administration of cryptotanshinone (400 mg/kg) plus chitosan. Each group of animals was given drug samples in admixture with the feed for 20 days. All animals were allowed ad libitum access to water and standard laboratory chow throughout the study period.

[5] = Body weight change in ob/ob mice, effect of sucrose palmitate on micronized cryptotanshinone (Example 11); conditions: cryptotanshinone 400 mg/kg in admixture with the feed for 20 days
Experimental: In order to ascertain whether sucrose palmitate which is an emulsifier maintains a particle size of micronized particles of cryptotanshinone, prevents the particle agglomeration or aggregation, and enhances therapeutic efficacy of cryptotanshinone, an animal experiment was carried out as follows.
as §2, with “room” for “mom”, “(sucrose palmitate)” for “(chitosan)”, “sucrose palmitate.” for “chitosan.”, “All animals were allowed ad libitum access to water and standard laboratory chow throughout the study period.” left out

[6] = Body weight change in ob/ob mice, intestine-targeted formulation of micronized β-lapachone (Example 14); conditions: ob/ob male mice; 200 mg/kg in terms of β-lapachone content PO once a day
Experimental: In order to confirm therapeutic efficacy of β-lapachone {7,8-dihydro-2,2-dimethyl-2H-naphtho(2,3-b)dihydropyran-7,8-dione} when micronized particles of β-lapachone was prepared into a formulation of an intestine-targeted drug delivery system, an animal experiment was carried out as follows.
0.2 g of sodium lauryl sulfate (SLS) and 10 g of β-lapachone were mixed and ground. To the resulting mixture were added approximately an equal amount of a water-soluble polymer (hydroxypropyl methylcellulose) relative to β-lapachone, and vehicles such as Croscarmellose sodium and light anhydrous silicic acid, followed by spray drying. Then, the spray-dried product was added to an ethanol solution containing about 20% by weight of Eudragit S-100 as a pH-sensitive polymer and about 2% by weight of PEG #6,000 as a plasticizer, and the mixture was then spray-dried to prepare intestine-targeted formulations.
In order to confirm the efficacy of each formulation, 200 mg/kg of the formulation in terms of β-lapachone content was administered to ob/ob mice once a day and changes in the body weight (BW) of animals were examined.
For this purpose, 10-week-old ob/ob male mice (Jackson Lab) as an obese mouse model of type 2 diabetes were purchased from Orient Co., Ltd., Korea and were allowed to acclimate to a new environment of the breeding room for 10 days prior to experiments. […]

[7] = Body weight change in ob/ob mice, micronized particles of tanshinone IIA (Example 13); conditions: ob/ob male mice; 400 mg/kg plus sodium lauryl sulfate in admixture with the feed for 20 days
Experimental: In order to confirm therapeutic efficacy of micronized particles of tanshinone IIA, an animal experiment was carried out as follows.
For this purpose, 10-week-old ob/ob male mice (Jackson Lab) as an obese mouse model of type 2 diabetes were purchased from Orient Co., Ltd., Korea and were allowed to acclimate to a new environment of the breeding room for 10 days prior to experiments. Animals were fed a solid feed (P5053, Labdiet) as a laboratory animal chow. The ob/ob male mice were housed and allowed to acclimate to a new environment for 10 days, in a breeding room maintained at a temperature of 22±2° C., humidity of 55±5%, and a 12-h light/dark (L/D) cycle (light from 8:00 am. to 8:00 p.m.). According to a randomized blocks design, the thus-acclimated animals were randomly divided into four groups, each consisting of 7 animals: a control group with no administration of any drug sample, a group with administration of a vehicle (sodium lauryl sulfate) only, a group with administration of tanshinone IIA (before microparticulation, 400 mg/kg) plus sodium lauryl sulfate, and a group with administration of micronized particles of tanshinone IIA (400 mg/kg) plus sodium lauryl sulfate. Each group of animals was given drug samples in admixture with the feed for 20 days. All animals were allowed ad libitum access to water and standard laboratory chow throughout the study period.

## Cc1cccc2c3c(ccc12)C1=C(C(=O)C3=O)C(C)CO1 (stereo not shown) [15,16-dihydrotanshinone]
[1]
  Final BW: 55.4 ± 3.1 g

## C[C@H]1COC2=C1C(=O)C(=O)c1c2ccc2c1CCCC2(C)C [Cryptotanshinone alone, cryptotanshinone]
[2]
  Final BW: 40.2 ± 1.3 g
[3]
  Final BW: 53.2 ± 1.3 g
[4]
  Final BW: 53.2 ± 1.3 g
[5]
  Final BW: 53.2 ± 1.3 g

## CC1(C)CCC2=C(O1)c1ccccc1C(=O)C2=O [Simply finely-divided powder, β-lapachone]
[6]
  Final BW: 57.5 ± 1.3 g

## Cc1coc2c1C(=O)C(=O)c1c-2ccc2c1CCCC2(C)C [Tanshinone IIA before microparticulation, tanshinone IIA]
[7]
  Final BW: 58.4 ± 3.3 g

Source: US20100209513A1, “PHARMACEUTICAL COMPOSITION CONTAINING MICRONIZED PARTICLES OF NAPHTHOQUINONE-BASED COMPOUND” (priority 2007, published 2010)
